# Measurements as given in patent US20110306621A1, “ACYLGUANIDINE DERIVATIVES” (priority 2009, published 2011).
# Structures can show the parent of a compound that is named as a salt.
# Tested on: mouse in which hyperactivity was caused by methamphetamine (MAP) or MK-801
# Assay: Improvement effect on increase in motion induced by methamphetamine or MK-801 in mice
# Type: in vivo
# Conditions: male ICR mouse; compound oral at a dose of 0.1 mg/kg; MK-801 0.3 mg/kg i.p.; motion for 60 minutes; P<0.05
# Description: The improvement effect of compound of formula (I) was evaluated by measuring the quantity of motion by IR irradiation when a compound was administered to a mouse in which hyperactivity was caused by methamphetamine (hereinafter, simply referred to as “MAP”) or MK-801, known as an animal model of schizophrenia.
# The animal was taken out of the breeding cage, orally administered with a compound to be tested, and then placed into a cage for breeding. After 30 minutes, the animal was put into a cage for measurement, and motion with the compound to be tested alone was measured. After 30 to 90 minutes, the animal was taken out, and intraperitoneally administered with a drug for increasing the motion (MAP; 1 mg/kg or MK-801; 0.3 mg/kg, dissolved in a physiological saline, respectively). Then, motion for a certain period of time (60 minutes) was measured by using a motion measurement device
# (CompACT AMS from Muromachi Kikai Co., Ltd.) by means of an infrared sensor.
# For normal mouse (a mouse administered with physiological saline) and mouse administered with a drug for increasing the motion, a Student's T test was performed for evaluation for each interval. For a mouse group administered with the compound to be tested, an assay was performed using a solvent (vehicle) group and a Dunnett's T test. […]
row,SMILES,inhibition of hyperactivity caused by MK-801
1,"NC(N)=NC(=O)c1ccc2cccc(-c3c(F)cccc3Cl)c2c1 [Example 1, 8-(2-chloro-6-fluorophenyl)-N-(diaminomethylene)-2-naphthamide hydrochloride]",significantly inhibited

# Biological target: T1, human 5-HT5A receptor (Homo sapiens, UniProt P47898)
# T1 construct: expressed in transfected cells; membranes used
# T1 sequence (P47898 whole entry): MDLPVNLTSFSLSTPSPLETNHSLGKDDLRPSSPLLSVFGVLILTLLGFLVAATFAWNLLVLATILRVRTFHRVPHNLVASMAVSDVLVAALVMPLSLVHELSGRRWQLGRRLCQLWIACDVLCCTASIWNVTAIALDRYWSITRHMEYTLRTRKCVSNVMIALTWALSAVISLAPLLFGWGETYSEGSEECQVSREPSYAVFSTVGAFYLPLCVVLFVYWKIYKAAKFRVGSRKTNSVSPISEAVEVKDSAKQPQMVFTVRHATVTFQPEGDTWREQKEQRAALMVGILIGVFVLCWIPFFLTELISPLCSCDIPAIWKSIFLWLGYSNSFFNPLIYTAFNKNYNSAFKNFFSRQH
# Assay: Test on a human 5-HT5A receptor binding inhibition ([3H]5-CT)
# Conditions: membrane from HEK293 cells for forced expression of human 5-HT5A receptor; Ki calculated from IC50 and Kd of [3H]5-CT (4.95 nM)
# Procedure, shortened: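 Membranes from HEK293 cells stably expressing human 5-HT5A, preincubated with compound 15 min at room temperature, then 2 nM [3H]5-CT added (stock solution), 37 °C for 60 min; filter-bound radioactivity counted. IC50 versus 1 μM 5-CT as full inhibition; Ki via Cheng–Prusoff using Kd 4.95 nM.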
row,SMILES,Ki [nM]
1,N#Cc1cc(Cl)ccc1-c1cccc2ccc(C(=O)N=C(N)N)cc12 [Example 33],3 to 30
2,COc1ncccc1-c1cccc2ccc(C(=O)N=C(N)N)cc12 [Example 8],3 to 30
3,NC(N)=NC(=O)c1ccc2cccc(-c3cccnc3)c2c1 [Example 21],3 to 30
4,N#Cc1cc(-c2cccc3ccc(C(=O)N=C(N)N)cc23)ccn1 [Example 170],3 to 30
5,NC(N)=NC(=O)c1ccc2cccc(-c3cccc(C(F)(F)F)n3)c2c1 [Example 154],3 to 30
6,COc1cncc(-c2cccc3ccc(C(=O)N=C(N)N)cc23)c1 [Example 111],30 to 300
7,NC(N)=NC(=O)c1ccc2cccc(-c3ccc(Cl)nc3Cl)c2c1 [Example 37],3 to 30
8,NC(N)=NC(=O)c1ccc2cccc(-c3ccc(F)cn3)c2c1 [Example 134],3 to 30
9,NC(N)=NC(=O)c1ccc2cccc(-c3c(F)cc(F)c(O)c3F)c2c1 [Example 143],0.3 to 3
10,NC(N)=NC(=O)c1ccc2cccc(-c3ncc(Cl)cc3Cl)c2c1 [Example 151],0.3 to 3
11,COc1ccccc1-c1c(Cl)cc(Cl)c2ccc(C(=O)N=C(N)N)cc12 [Example 136],3 to 30
12,NC(N)=NC(=O)c1ccc2cccc(-c3cccc4ncccc34)c2c1 [Example 109],0.3 to 3

# Other lines, results leading:
row,Ki [nM],SMILES
1,0.96,"NC(N)=NC(=O)c1ccc2cccc(-c3c(F)cccc3Cl)c2c1 [Example 1, 8-(2-chloro-6-fluorophenyl)-N-(diaminomethylene)-2-naphthamide hydrochloride]"
2,0.3 to 3,NC(N)=NC(=O)c1ccc2cccc(-c3cccc(F)c3Cl)c2c1 [Example 77]
3,0.3 to 3,COc1cc(F)cc(F)c1-c1cccc2ccc(C(=O)N=C(N)N)cc12 [Example 42]
4,0.3 to 3,NC(N)=NC(=O)c1ccc2cccc(-c3ccnc(C4CC4)c3F)c2c1 [Example 198]
5,0.3 to 3,NC(N)=NC(=O)c1ccc2cccc(-c3ccncc3Cl)c2c1 [Example 44]
6,0.3 to 3,NC(N)=NC(=O)c1ccc2cccc(-c3ccncc3F)c2c1 [Example 25]
7,0.3 to 3,NC(N)=NC(=O)c1ccc2cccc(-c3c(F)cc(CO)cc3F)c2c1 [Example 121]
8,0.3 to 3,N#Cc1ccc(-c2cccc3ccc(C(=O)N=C(N)N)cc23)cc1 [Example 2]
